pIC50: −log10 of the molar value. Like-named read-outs stand apart in the source and are kept apart here.
Columns and labels:
[1] = test system: SARS-CoV-2; test: microbe, parasite or virus in culture; format: cell-based; conditions: Severe acute respiratory syndrome coronavirus 2, A549, 48 h; read-out: IC50 for inhibition of SARS CoV-2 mediated cell killing
[2] = Compound cytotoxicity (CC50) counter screen in Vero E6 cells; format: cell-based; conditions: African green monkey, read-out: CC50 (general cytotoxic effects in Vero E6 cells)
Protocol: Compound cytotoxicity (CC50) is assessed in a BSL-2 counter screen as follows: Host cells in media are added in 25 μl aliquots (4000 cells/well) to each well of assay ready plates prepared with test compounds as above. Cells only (100% viability) and cells treated with hyamine at 100 μM final concentration (0% viability) serve as the high and low signal controls, respectively, for cytotoxic effect in the assay. DMSO is maintained at a constant concentration for all wells (0.3%) as dictated by the dilution factor of stock test compound concentrations. After incubating plates at 37° C./5% CO2 and 90% humidity for 72 hours, 30 μl Cell Titer-Glo (Promega) is added to each well. Luminescence is read using a BMG PHERAstar plate reader following incubation at room temperature for 10 minutes to measure cell viability.

[3] = in vitro; conditions: human
[4] = test system: SARS CoV-2 (USA_WA1/2020); test: SARS CoV-2 CPE assay for antiviral activity (Vero E6 host cells, Cell Titer-Glo); format: cell-based; conditions: read-out: IC50 for inhibition of SARS CoV-2 mediated cell killing
[5] = Vero C1008, Vero E6 cells, 10-point dose response, high concentration 15 μM, 72 hours

Row | Structure (SMILES) | pIC50 [1] | CC50 at 72 h [2] [µM] | CC50 [3] [µM] | pIC50 [4, 5] | pIC50 ([4]; Vero C1008, 72 h)
1 | O=c1cc(-c2ccnc3[nH]c(C4CC4)cc23)cc(N2CCCCC2C(F)(F)F)[nH]1 (stereo not shown) [Compound 3] | 7.54 | 2.83 | 0.482 | 6.94 | 
2 | N#Cc1cc2c(-c3cc(-c4ccccc4C(F)(F)F)[nH]c(=O)c3)ccnc2[nH]1 [Compound 2] | 5.81 | > 10 | > 10 | 5.52 | 
3 | Cc1ccc(-c2cc3c(-c4cc(N5CCOCC5C(F)(F)F)[nH]c(=O)c4)ccnc3[nH]2)s1 (stereo not shown) [Compound 4] | 6.80 | 1.43 | 0.411 |  | 5.98
4 | O=c1cc(-c2ccnc3[nH]ncc23)cc(N2CCCCC2C(F)(F)F)[nH]1 (stereo not shown) [Compound 1] | 6.29 | 15 | 8 | 6.33 | 

Source: patent publication US20220184054A1, “ANTI-VIRAL ACTIVITY OF VPS34 INHIBITORS” (priority 2020, published 2022)
